# Results taken from ChEMBL document CHEMBL1122681, “(Acylaryloxy)acetic acid diuretics. 5. [(2-Alkyl- and 2,2-disubstituted-1,3-dioxo-5-indanyl)oxy]acetic acids” (J Med Chem, 1984).
# What was measured:
# Pan troglodytes [1] = assay: Compound was evaluated for diuretic activity in chimpanzee measured as increase in volume of urine at 5 mg/kg; assay type: functional
# Pan troglodytes [2] = assay: (§1) Compound was evaluated for diuretic activity in chimpanzee measured as increase in the number of microequivalents of Na+ /min at 1 mg/kg; assay type: functional, Urine
# Pan troglodytes [3] = assay: Compound was evaluated for diuretic activity in chimpanzee measured as increase in the number of microequivalents of K+ /min at 1 mg/kg; assay type: functional, Urine
# Pan troglodytes [4] = assay: Compound was evaluated for diuretic activity in chimpanzee measured as increase in the number of microequivalents of K+ /min at 5 mg/kg; assay type: functional, Urine
# Pan troglodytes [5] = assay: Compound was evaluated for diuretic activity in chimpanzee measured as clearance of […] and urate after intra venous administration of 5 mg/kg.; assay type: functional, Urine
# Pan troglodytes [6] = assay: Compound was evaluated for diuretic activity in chimpanzee measured as increase in the number of microequivalents of cl-/min at 5 mg/kg; assay type: functional, Urine
# Pan troglodytes [7] = assay: Compound was evaluated for diuretic activity in chimpanzee measured as increase in the number of microequivalents of Na+ /min at 5 mg/kg; assay type: functional, Urine
# Pan troglodytes [8] = assay: (§2) Compound was evaluated for diuretic activity in chimpanzee measured as increase in the number of microequivalents of Cl- electrolyte/min at 1 mg/kg; assay type: functional, Urine
# Pan troglodytes [9] = assay: Compound was evaluated for diuretic activity in chimpanzee measured as clearance of […] and urate after peroral administration of 5 mg/kg; assay type: functional, Urine; conditions: route oral
# Pan troglodytes [10] = assay: (§3) Compound was evaluated for diuretic activity in chimpanzee measured as increase in volume of urine at 1 mg/kg; assay type: ADME, organism-based; parameters: dose 1 mg/kg; conditions: in vivo
# [11] = volume of urine at 3 mg/kg; assay type: ADME, organism-based; parameters: dose 3 mg/kg; conditions: in vivo
# Rattus norvegicus [12] = assay: Compound was evaluated for diuretic activity administered orally in female rats measured as milliequivalents of K+x 100 / cage at 81 mg/kg; assay type: functional, Urine; conditions: route oral
# [13] = volume of urine at 9 mg/kg; assay type: ADME, organism-based; parameters: dose 9 mg/kg; conditions: in vivo
# [14] = volume of urine at 81 mg/kg; assay type: ADME, organism-based; parameters: dose 81 mg/kg; conditions: in vivo
# Rattus norvegicus [15] = assay: Compound was evaluated for diuretic activity administered orally in female rats measured as milliequivalents of Na+x 100 / cage at 81 mg/kg; assay type: functional, Urine; conditions: route oral
# Rattus norvegicus [16] = assay: Compound was evaluated for diuretic activity administered orally in female rats measured as milliequivalents of Cl-x 100 / cage at 81 mg/kg; assay type: functional, Urine; conditions: route oral
# Pan troglodytes [17] = assay: Compound was evaluated for diuretic activity in chimpanzee measured as increase in the number of microequivalents of Cl- electrolyte/min at 5 mg/kg; assay type: functional, Urine
# Rattus norvegicus [18] = assay: Compound was evaluated for diuretic activity administered orally in female rats measured as milliequivalents of Cl-x 100 / cage at 9 mg/kg; assay type: functional, Urine; conditions: route oral
# Rattus norvegicus [19] = assay: Compound was evaluated for diuretic activity administered orally in female rats measured as milliequivalents of Na+x 100 / cage at 9 mg/kg; assay type: functional, Urine; conditions: route oral
# Canis familiaris [20] = assay: Compound was evaluated for diuretic activity, in female mongrel dogs by measuring amount of K+ in urine after iv administration of 5 mg/kg (control/compound treatment results) Control = 13; assay type: functional, Canis lupus familiaris
# Canis familiaris [21] = assay: Compound was evaluated for diuretic activity, in female mongrel dogs by measuring amount of Cl- in urine after iv administration of 5 mg/kg (control/compound treatment results) Control = 6; assay type: functional, Canis lupus familiaris
# Pan troglodytes [22] = assay: Compound was evaluated for diuretic activity in chimpanzee measured as clearance of […] and urate after intra venous administration of 1 mg/kg.; assay type: functional, Urine
# Canis familiaris [23] = assay: Compound was evaluated for diuretic activity, administered orally in female mongrel dogs (5 mg/kg) measured as milliequivalents of Na; assay type: functional, Canis lupus familiaris, Urine
# Rattus norvegicus [24] = assay: Compound was evaluated for diuretic activity administered orally in female rats measured as milliequivalents of Cl-+x 100 / cage at 27 mg/kg; assay type: functional, Urine; conditions: route oral
# Rattus norvegicus [25] = assay: Compound was evaluated for diuretic activity administered orally in female rats measured as milliequivalents of Na+x 100 / cage at 27 mg/kg; assay type: functional, Urine; conditions: route oral
# Canis familiaris [26] = species on record: Canis familiaris; assay: Volume of urine in dog; assay type: ADME, organism-based, Canis lupus familiaris; conditions: in vivo
# Canis familiaris [27] = assay: Compound was evaluated for diuretic activity, administered orally in female mongrel dogs (5 mg/kg) measured as milliequivalents of K; assay type: functional, Canis lupus familiaris, Urine
# Canis familiaris [28] = assay: (§4) Compound was evaluated for diuretic activity, in female mongrel dogs by measuring volume of urine, after iv administration of 5 mg/kg (control/compound treatment results) Control = 1; assay type: ADME, organism-based, Canis lupus familiaris; parameters: dose 5 mg/kg, route intravenous; conditions: dog, in vivo
# Rattus norvegicus [29] = assay: Compound was evaluated for diuretic activity administered orally in female rats measured as milliequivalents of K+x 100 / cage at 27 mg/kg; assay type: functional, Urine; conditions: route oral
# Rattus norvegicus [30] = assay: Compound was evaluated for diuretic activity administered orally in female rats measured as milliequivalents of Na+x 100 / cage at 3 mg/kg; assay type: functional, Urine; conditions: route oral
# Rattus norvegicus [31] = assay: Compound was evaluated for diuretic activity administered orally in female rats measured as milliequivalents of Cl-x 100 / cage at 3 mg/kg; assay type: functional, Urine; conditions: route oral
# Rattus norvegicus [32] = assay: Compound was evaluated for diuretic activity administered orally in female rats measured as milliequivalents of K+x 100 / cage at 3 mg/kg; assay type: functional, Urine; conditions: route oral
# Canis familiaris [33] = assay: Compound was evaluated for diuretic activity, in female mongrel dogs by measuring amount of Na+ in urine after iv administration of 5 mg/kg (control/compound treatment results) Control = 79; assay type: functional, Canis lupus familiaris
# Rattus norvegicus [34] = assay: Compound was evaluated for diuretic activity administered orally in female rats measured as milliequivalents of K+x 100 / cage at 9 mg/kg; assay type: functional, Urine; conditions: route oral
# Pan troglodytes [35] = assay: as §3; assay type: functional
# [36] = volume of urine at 27 mg/kg; assay type: ADME, organism-based; parameters: dose 27 mg/kg; conditions: in vivo
# Canis familiaris [37] = assay: Compound was evaluated for diuretic activity, administered orally in female mongrel dogs (5 mg/kg) measured as milliequivalents of Cl-; assay type: functional, Canis lupus familiaris, Urine
# Pan troglodytes [38] = assay: Compound was evaluated for diuretic activity in chimpanzee measured as increase in the number of microequivalents of Na+ /min at 0.5 mg/kg; assay type: functional, Urine
# Pan troglodytes [39] = assay: Compound was evaluated for diuretic activity in chimpanzee measured as increase in volume of urine at 0.5 mg/kg; assay type: functional
# Pan troglodytes [40] = assay: Compound was evaluated for diuretic activity in chimpanzee measured as clearance of […] and urate after intra venous administration of 0. 5 mg/kg.; assay type: functional, Urine
# Pan troglodytes [41] = assay: as §1; assay type: functional, Urine; remark: listed apart in the source
# Pan troglodytes [42] = assay: as §2; assay type: functional, Urine; remark: listed apart in the source
# Pan troglodytes [43] = assay: Compound was evaluated for diuretic activity in chimpanzee measured as increase in the number of microequivalents of K+ /min at 0.5 mg/kg; assay type: functional, Urine
# Canis familiaris [44] = assay: as §4; assay type: functional, Canis lupus familiaris
# Pan troglodytes [45] = assay: Compound was evaluated for diuretic activity in chimpanzee measured as clearance of […] and urate after intra venous administration of 1 mg/kg; assay type: functional, Urine
# Canis familiaris [46] = assay: Compound was evaluated for diuretic activity, in female mongrel dogs by measuring amount of K+ in urine after iv administration of 5 mg/kg (control/compound treatment results) Control = 5; assay type: functional, Canis lupus familiaris
# Canis familiaris [47] = assay: Compound was evaluated for diuretic activity, in female mongrel dogs by measuring amount of Na+ in urine after iv administration of 5 mg/kg (control/compound treatment results) Control = 37; assay type: functional, Canis lupus familiaris
# Canis familiaris [48] = assay: Compound was evaluated for diuretic activity, in female mongrel dogs by measuring amount of Cl- in urine after iv administration of 5 mg/kg (control/compound treatment results) Control = 1; assay type: functional, Canis lupus familiaris
# Canis familiaris [49] = species on record: Canis familiaris; assay: volume of urine in dog; assay type: ADME, organism-based, Canis lupus familiaris; conditions: in vivo
# Canis familiaris [50] = assay: Compound was evaluated for diuretic activity, in female mongrel dogs by measuring amount of K+ in urine after iv administration of 5 mg/kg (control/compound treatment results) Control = 18; assay type: functional, Canis lupus familiaris
# Canis familiaris [51] = assay: Compound was evaluated for diuretic activity, in female mongrel dogs by measuring amount of Na+ in urine after iv administration of 5 mg/kg (control/compound treatment results) Control = 29; assay type: functional, Canis lupus familiaris
Compound,Increase in volume (Pan troglodytes [1]) [mL/min],Increase (Pan troglodytes [2]),Increase (Pan troglodytes [3]),Increase (Pan troglodytes [4]),Increase (Pan troglodytes [7]),Increase (Pan troglodytes [8]),Delta C urate / delta C insulin (Pan troglodytes [9]),Urine volume [11] [mL],Activity (Rattus norvegicus [12]),Urine volume [13] [mL],Urine volume [14] [mL],Activity (Rattus norvegicus [15]),Activity (Rattus norvegicus [16]),Increase (Pan troglodytes [17]),Activity (Rattus norvegicus [18]),Activity (Rattus norvegicus [19]),Activity (Canis familiaris [23]),Activity (Canis familiaris [27]),Increase in volume (Pan troglodytes [35]) [mL/min],Activity (Canis familiaris [37]),also measured
CCC1C(=O)c2cc(OC)c(Cl)c(Cl)c2C1=O (stereo unspecified),0.1,3,26,27,4,13,0.008,–,–,–,–,–,–,–,–,–,–,–,–,–,Delta C urate / delta C insulin (Pan troglodytes [5]): 0; Increase (Pan troglodytes [6]): 10; Increase in volume (Pan troglodytes [10]): 0.1 mL/min
CCC1(CC)C(=O)c2cc(OCC(=O)O)c(C)c(Cl)c2C1=O,2.7,25,131,132,290,123,0.138,27,106,26,38,251,369,285,124,92,7,5,0.4,10,Activity (Canis familiaris [20]): 27 u equiv min-1; Activity (Canis familiaris [21]): 157 u equiv min-1; Delta C urate / delta C insulin (Pan troglodytes [22]): 0.082; Activity (Rattus norvegicus [24]): 222; Activity (Rattus norvegicus [25]): 158; Urine volume (Canis familiaris [26]): 570 mL; Urine volume (Canis familiaris [28]): 2 mL/min; Activity (Rattus norvegicus [29]): 62; Activity (Rattus norvegicus [30]): 70; Activity (Rattus norvegicus [31]): 82; Activity (Rattus norvegicus [32]): 29; Activity (Canis familiaris [33]): 259 u equiv min-1; Activity (Rattus norvegicus [34]): 43; Urine volume [36]: 33 mL
CC1(c2ccccc2)C(=O)c2cc(OCC(=O)O)c(Cl)c(Cl)c2C1=O (stereo unspecified),–,–,25,–,–,36,0.043,–,–,–,–,–,–,–,–,–,–,–,0.6,–,Increase (Pan troglodytes [38]): 29; Increase in volume (Pan troglodytes [39]): 0.3 mL/min; Delta C urate / delta C insulin (Pan troglodytes [40]): 0.01; Increase (Pan troglodytes [41]): 2; Increase (Pan troglodytes [42]): 30; Increase (Pan troglodytes [43]): 31
CCC1C(=O)c2cc(OCC(=O)O)c(C)c(C)c2C1=O (stereo unspecified),1.2,254,41,30,194,314,0.061,–,–,–,–,–,–,244,–,–,6,5,1.6,8,Activity (Canis familiaris [44]): 4 mL/min; Delta C urate / delta C insulin (Pan troglodytes [45]): 0.101; Activity (Canis familiaris [46]): 24 u equiv min-1; Activity (Canis familiaris [21]): 114 u equiv min-1; Urine volume (Canis familiaris [26]): 553 mL; Activity (Canis familiaris [47]): 196 u equiv min-1
NS(=O)(=O)c1cc(C(=O)O)c(NCc2ccco2)cc1Cl [FUROSEMIDE],–,749,154,–,–,928,-0.083,26,97,28,46,253,328,–,96,69,23,31,7.3,8,Activity (Canis familiaris [48]): 1081 u equiv min-1; Urine volume (Canis familiaris [49]): 36 mL; P Increase (Pan troglodytes [3]): 100; Activity (Canis familiaris [50]): 141 u equiv min-1; Delta C urate / delta C insulin (Pan troglodytes [22]): -0.005; Activity (Rattus norvegicus [24]): 228; Activity (Rattus norvegicus [25]): 150; Urine volume (Canis familiaris [28]): 3 mL/min; Activity (Rattus norvegicus [29]): 60; Activity (Rattus norvegicus [30]): 57; Activity (Rattus norvegicus [31]): 71; Increase (Pan troglodytes [41]): 738; Increase (Pan troglodytes [42]): 961; Activity (Rattus norvegicus [32]): 31; Activity (Canis familiaris [51]): 960 u equiv min-1; Activity (Rattus norvegicus [34]): 39; Increase (Pan troglodytes [35]): 0.8 mL/min; Urine volume [36]: 36 mL
